According to publication PMC6408518, “Structure guided design of an antibacterial peptide that targets UDP-N-acetylglucosamine acyltransferase” (Scientific Reports, 2019):
Where “and” joins values, the source holds several entries; their conditions need not be identical. Equal values may be shown once. Where a SMILES comes first, the peptide text is derived from it. Where no end group is shown, it is not given here.

What was measured:
E. coli LpxA [1] = molecular target: T1, E. coli LpxA (Escherichia coli, UniProt P0A722); assay: LpxA acyltransferase inhibition assay ([α-32P]UDP-GlcNAc conversion, TLC); format: biochemical; set-up: made in house; host or cells: E. coli BL21(DE3)/pLysE/pTO1; settings: 1 µM UDP-GlcNAc, 1 µM R-3-hydroxymyristoyl-ACP, 1 nM LpxA, 30 °C, 10% DMSO; SD of triplicates
Procedure: The peptides were assayed for acyl transferase inhibitory activity under conditions where the concentrations of UDP-GlcNAc and R-3-hydroxymyristoyl-ACP were 1 µM each. […] Peptide CR21 and CR23 still have good inhibitory potential of 10 μM albeit lower than peptide CR20.
The LpxA enzymatic reaction monitors the conversion of [α-^32P]UDP-GlcNAc to [α-^32P]UDP-3-O-(R-3-hydroxymyristoyl)- GlcNAc. The assay components consist of 40 mM HEPES buffer, pH 8, 1 mg/ml BSA, 1 μM R-3-hydroxymyristoyl-ACP, and 1 μM [α-^32P]UDP-GlcNAc (2 × 10^6 cpm/nmol). […] The final concentration of DMSO was adjusted to 10% to match the peptide solvent in all enzymatic assays.
The reactions were started by the addition of 1 nM of LpxA and incubated at 30 °C for a maximum of 10 min. Three or four time points were collected during this time. Termination of the reaction was accomplished by the addition of 1 μl portions onto a silica thin layer chromatography (TLC) plate. The TLC plates were air dried for 10 min before developing in chloroform/methanol/water/acetic acid (25:15:4:2, v/v). Plates were exposed to PhosphorImager screens overnight, and the data were evaluated with Molecular Dynamics PhosphorImager equipped with ImageQuant software. […] To determine the IC50 at 30 °C, the data were fit to the following equations,1 vi/vc=IC50/(I+IC50) or1a %activity=100/(1+I/IC50) vi represents the initial rate, at given concentrations of inhibitor, vc represents the initial velocity of the control reaction without inhibitor, and I represents the inhibitor concentration. The IC50 determination represents the concentration of inhibitor needed to inhibit 50% of the enzyme activity.

E. coli LpxA [2] = molecular target: T1, E. coli LpxA; settings: previous enzymatic evidence; cited from earlier work
E. coli = settings: peptide expressed fused to GST in E. coli; cited from earlier work

T1 sequence (P0A722 whole entry): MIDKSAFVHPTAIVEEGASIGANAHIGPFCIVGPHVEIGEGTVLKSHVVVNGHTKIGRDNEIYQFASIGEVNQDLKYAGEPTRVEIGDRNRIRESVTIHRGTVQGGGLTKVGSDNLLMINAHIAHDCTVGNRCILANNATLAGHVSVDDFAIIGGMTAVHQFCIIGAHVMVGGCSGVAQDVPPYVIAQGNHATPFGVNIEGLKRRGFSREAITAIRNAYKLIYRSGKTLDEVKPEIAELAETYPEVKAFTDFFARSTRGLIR

Compound | IC50 (E. coli LpxA [1]) | Mode of inhibition (E. coli LpxA [2]) | Bacterial growth (E. coli)
CSCC[C@H](NC(=O)[C@@H](N)Cc1c[nH]c2ccccc12)C(=O)N[C@@H](CC(C)C)C(=O)N[C@@H](CC(=O)O)C(=O)O [CR26, WMLD] (H-WMLD-OH) | > 100 µM |  | 
GWMLDPIA [CR24] | > 100 µM |  | 
GWMLDPIAGKW [CR23] | 10 ± 0.3 µM |  | 
GWMLDPIAGKWSR [CR19] | 0.077 ± 0.003 µM |  | 
SSGWMLDPIAGKW [CR22] | 9 ± 2.2 µM |  | 
SSGWMLDPIAGKWS [CR21] | 12 ± 1.4 µM |  | 
SSGWMLDPIAGKWSR [Peptide 920] |  | largely competitive with respect to ACP | inhibited bacterial growth
WMLDPI [CR25, WMLDPI] | > 100 µM |  | 
WMLDPIAGKWSR [CR20] | ~0.05 µM and 0.05 µM |  | 
